Assays:
[1] = target: human adenosine A2a receptor (Homo sapiens, UniProt P29274); test: Adenosine A2a Receptor Whole Cell Cyclic AMP Assay; conditions: HEK293 cells stably expressing human A2a; for A2a @ 100 μM Adenosine (cAMP IC50): in the presence of 100 μM adenosine; for A2a @ 1 μM Adenosine (cAMP IC50): in the presence of 1 μM adenosine
[2] = target: T1, human adenosine A2b receptor (Homo sapiens, UniProt P29275); test: Adenosine A2b Receptor Whole Cell Cyclic AMP Assay; conditions: HEK293 cells transfected with human A2b; in the presence of 10 μM adenosine
T1 sequence (P29275 1-332): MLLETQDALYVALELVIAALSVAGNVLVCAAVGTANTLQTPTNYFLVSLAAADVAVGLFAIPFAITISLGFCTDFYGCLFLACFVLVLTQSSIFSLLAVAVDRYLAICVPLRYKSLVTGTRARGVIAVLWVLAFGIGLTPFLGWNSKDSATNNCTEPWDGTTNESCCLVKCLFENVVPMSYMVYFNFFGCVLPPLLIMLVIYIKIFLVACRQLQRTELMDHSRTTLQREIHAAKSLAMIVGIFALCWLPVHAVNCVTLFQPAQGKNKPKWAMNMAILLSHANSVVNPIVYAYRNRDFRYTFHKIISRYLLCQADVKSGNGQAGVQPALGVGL

Chain of human adenosine A2a receptor (P29274 whole entry): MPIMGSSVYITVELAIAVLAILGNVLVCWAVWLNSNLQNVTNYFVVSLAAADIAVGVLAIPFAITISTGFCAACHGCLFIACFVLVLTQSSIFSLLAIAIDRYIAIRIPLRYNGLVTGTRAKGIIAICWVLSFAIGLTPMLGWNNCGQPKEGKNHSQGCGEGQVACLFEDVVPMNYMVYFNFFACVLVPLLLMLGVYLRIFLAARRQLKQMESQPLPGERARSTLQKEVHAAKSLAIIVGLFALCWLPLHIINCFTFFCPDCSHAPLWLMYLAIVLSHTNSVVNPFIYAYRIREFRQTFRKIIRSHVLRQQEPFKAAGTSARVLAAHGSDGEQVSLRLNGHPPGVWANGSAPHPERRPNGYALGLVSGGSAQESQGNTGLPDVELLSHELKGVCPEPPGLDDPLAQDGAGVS

| SMILES | A2a @ 100 μM Adenosine (cAMP IC50) [1] | A2a @ 1 μM Adenosine (cAMP IC50) [1] | other results |
| --- | --- | --- | --- |
| Cc1ccnc2ccc(-c3c(-c4ccc(F)cc4)nc(N)c4nnnn34)cc12 [1-6, 6-(4-fluorophenyl)-5-(4-methylquinolin-6-yl)tetrazolo[1,5-a]pyrazin-8-amine] | ++ (partial) | – | – |
| Nc1nc(-c2ccc(F)cc2)c(-c2ccc3ncoc3c2)n2nnnc12 [1-10, 5-(benzo[d]oxazol-6-yl)-6-(4-fluorophenyl)tetrazolo[1,5-a]pyrazin-8-amine] | + (partial) | – | – |
| Nc1nc(-c2ccc(F)cc2)c(-c2ccc3ncc(Cl)n3c2)n2nnnc12 [1-23, 5-(3-chloroimidazo[1,2-a]pyridin-6-yl)-6-(4-fluorophenyl)tetrazolo[1,5-a]pyrazin-8-amine] | ++ (partial) | – | – |
| Cc1cc(-c2c(-c3ccc(F)cc3)nc(N)n3nnnc23)cc(C)n1 [1-28, 8-(2,6-dimethylpyridin-4-yl)-7-(4-fluorophenyl)tetrazolo[1,5-c]pyrimidin-5-amine] | – | – | A2b @ 10 μM Adenosine (cAMP IC50) [2]: + (partial) |

The next lines start with results.

| A2a @ 100 μM Adenosine (cAMP IC50) [1] | A2a @ 1 μM Adenosine (cAMP IC50) [1] | SMILES | other results |
| --- | --- | --- | --- |
| – | +++ (partial) | Cc1ccnc2ccc(-c3c(-c4ccc(Cl)cc4)nc(N)c4nnnn34)cc12 [1-39, 6-(4-chlorophenyl)-5-(4-methylquinolin-6-yl)tetrazolo[1,5-a]pyrazin-8-amine] | – |
| – | +++ (partial) | Cc1ccnc2ccc(-c3c(-c4ccc(C(=O)N(C)C)cc4)nc(N)c4nnnn34)cc12 [1-40, 4-(8-amino-5-(4-methylquinolin-6-yl)tetrazolo[1,5-a]pyrazin-6-yl)-N,N-dimethylbenzamide] | – |
| – | +++ (partial) | Cc1ccnc2ccc(-c3c(-c4cccc(Cl)c4)nc(N)c4nnnn34)cc12 [1-50, 6-(3-chlorophenyl)-5-(4-methylquinolin-6-yl)tetrazolo[1,5-a]pyrazin-8-amine] | – |

Source: patent US20250122203A1, “ADENOSINE RECEPTOR ANTAGONISTS” (Crossignal Therapeutics, Inc., priority 2021, published 2025)
